Experimental data as given in patent publication US10195156B2, “Compounds and compositions for intracellular delivery of agents” (ModernaTX, Inc., priority 2015, dated 2019).
Blank lines part the entries; values can stand above or below the molecule they belong to.

Legend:
[1] = tested on: modified luciferase expression; experiment: Expression of Luc in different organs (liver, lung, spleen, femur) 6 hours after intravenous administration; format: in vivo; conditions: i.v., 0.5 mpk
Protocol: The efficacy of the nanoparticle compositions presented in Tables 1, 1a, 17-1, 19-1, 20-1 and 21-1 was further evaluated by measuring the expression of modified luciferase in the liver, lung, spleen, and femur upon administration of a given composition. Formulations were administered intravenously to mice (n=3) at a dosage of 0.5 mpk and bioluminescence measured after 6 hours. The standard MC3 formulation and a PBS control were also tested.

[2] = tested on: luciferase (Luc) mRNA expression; experiment: Expression of Luc induced by sample formulations, whole-body bioluminescence after intravenous administration; format: in vivo; conditions: mice, i.v., 0.5 mg/kg
Protocol: In order to monitor how effectively various nanoparticle compositions deliver therapeutic and/or prophylactic agents to targeted cells, different nanoparticle compositions including a particular therapeutic and/or prophylactic agent (for example, a modified or naturally occurring RNA such as an mRNA) are prepared and administered to rodent populations. Mice are intravenously, intramuscularly, intraarterially, or intratumorally administered a single dose including a nanoparticle composition with a formulation such as those provided in Table 1. In some instances, mice may be made to inhale doses. Dose sizes may range from 0.001 mg/kg to 10 mg/kg, where 10 mg/kg describes a dose including 10 mg of a therapeutic and/or prophylactic agent in a nanoparticle composition for each 1 kg of body mass of the mouse. A control composition including PBS may also be employed.
Upon administration of nanoparticle compositions to mice, dose delivery profiles, dose responses, and toxicity of particular formulations and doses thereof can be measured by enzyme-linked immunosorbent assays (ELISA), bioluminescent imaging, or other methods. For nanoparticle compositions including mRNA, time courses of protein expression can also be evaluated. Samples collected from the rodents for evaluation may include blood, sera, and tissue (for example, muscle tissue from the site of an intramuscular injection and internal tissue); sample collection may involve sacrifice of the animals.
The efficacy of the nanoparticle compositions presented in Tables 1, 1a, 17-1, 19-1, 20-1 and 21-1 was evaluated with a bioluminescence study. Formulations were administered intravenously to mice (n=6) at a dosage of 0.5 mg/kg (mpk) and bioluminescence measured at 3, 6, and 24 hour time points. The standard MC3 formulation and a PBS control were evaluated for comparison.

[3] = Encapsulation efficiency of RNA (QUANT-IT RIBOGREEN RNA assay); format: physicochemical; conditions: for encapsulation efficiency, rank within the named table (in words): comparison amongst compositions
Protocol: For nanoparticle compositions including an RNA, a QUANT-IT™ RIBOGREEN® RNA assay (Invitrogen Corporation Carlsbad, Calif.) can be used to evaluate the encapsulation of an RNA by the nanoparticle composition. The samples are diluted to a concentration of approximately 5 μg/mL in a TE buffer solution (10 mM Tris-HCl, 1 mM EDTA, pH 7.5). 50 μL of the diluted samples are transferred to a polystyrene 96 well plate and either 50 μL of TE buffer or 50 μL of a 2% Triton X-100 solution is added to the wells. The plate is incubated at a temperature of 37° C. for 15 minutes. The RIBOGREEN® reagent is diluted 1:100 in TE buffer, and 100 μL of this solution is added to each well. The fluorescence intensity can be measured using a fluorescence plate reader (Wallac Victor 1420 Multilablel Counter; Perkin Elmer, Waltham, Mass.) at an excitation wavelength of, for example, about 480 nm and an emission wavelength of, for example, about 520 nm. The fluorescence values of the reagent blank are subtracted from that of each of the samples and the percentage of free RNA is determined by dividing the fluorescence intensity of the intact sample (without addition of Triton X-100) by the fluorescence value of the disrupted sample (caused by the addition of Triton X-100).

[4] = Particle size and polydispersity index of nanoparticle compositions (Zetasizer Nano ZS); format: physicochemical
Protocol: A Zetasizer Nano ZS (Malvern Instruments Ltd, Malvern, Worcestershire, UK) can be used to determine the particle size, the polydispersity index (PDI) and the zeta potential of the nanoparticle compositions in 1×PBS in determining particle size and 15 mM PBS in determining zeta potential.

[5] = pKa of nanoparticle compositions; format: physicochemical
IP-10 = experiment: Cytokine production induced by sample formulations: IP-10; format: in vivo; conditions: mice, i.v., 0.5 mpk, 6 hours, in pg/mL (unit assumed)
Text: (§1) The introduction of foreign material into a mammalian body induces an innate immune response that promotes cytokine production. Such immune responses to, for example, nanoparticle compositions including therapeutic and/or prophylactic agents, are undesirable. The induction of certain cytokines is thus measured to evaluate the […] of nanoparticle compositions. The concentrations of various cytokines in mice upon intravenous administration of nanoparticle compositions presented in Tables 1, 1a, 17-1, 19-1, 20-1 and 21-1 at a dosage of 0.5 mpk was measured at 6 hours. The standard MC3 formulation and a PBS control were also tested.

IL-6 = experiment: Cytokine production induced by sample formulations: IL-6; format: in vivo; conditions: mice, i.v., 0.5 mpk, 6 hours
Text: as §1

[6] = Table 1, * lipid:DSPC:Chol:PEG-DMG 50:10:38.5:1.5
[7] = Table 1, * formulated with lipid:DSPC:Chol:PEG-DMG 50:10:38.5:1.5
[8] = Table 20-1, rows without footnote mark
[9] = Table 1, rows without footnote mark

SMILES: CCCCCCCCCCCCN(CCCCCCCCCCCC)CCN(CCCCCCCCCCCC)CCN1CCNCC1 [Compound 37, N^1,N^1,N^2-Tridodecyl-N^2-(2-(piperazin-1-yl)ethyl)ethane-1,2-diamine]
- Total Flux Liver ([1]; Table 3, mice): 1.92E+06
- Total Flux Lung ([1]; Table 3, mice): 6.90E+05
- Total Flux Spleen ([1]; Table 3, mice, spleen): 9.75E+05
- Total Flux 3 hours ([2]; Table 2): 1.19E+07
- Total Flux 6 hours ([2]; Table 2): 6.66E+06
- Total Flux 24 hours ([2]; Table 2): 9.38E+05
- total flux after 24 hours, rank within the named table (in words) [2]: lowest flux after 24 hours
- EE (%) [3, 6]: 99.9%
- encapsulation efficiency, rank within the named table (in words) [3]: highest
- Size (nm) [4, 7]: 86.6 nm
- PDI [4, 6]: 0.107
- pKa [5, 6]: 6.45
- IP-10 (IP-10; Table 4): 198

SMILES: CCCCCCCCCCCCN(CCCCCCCCCCCC)CCNCCO [Compound 20-19, 2-((2-(Didodecylamino)ethyl)amino)ethan-1-ol]
- Total Flux Liver ([1]; Table 20-3, mice): 3.80E+05
- Total Flux Lung ([1]; Table 20-3, mice): 1.96E+04
- Total Flux Spleen ([1]; Table 20-3, mice, spleen): 2.74E+04
- Total Flux 3 hours ([2]; Table 20-2): 5.37E+05
- Total Flux 6 hours ([2]; Table 20-2): 7.60E+05
- Total Flux 24 hours ([2]; Table 20-2): 6.08E+05
- EE (%) [3, 8]: 99.5%
- encapsulation efficiency, rank within the named table (in words) [3]: highest
- PDI [4, 8]: 0.145
- Size (nm) [4, 8]: 74.9 nm
- pKa [5, 8]: 4.73
- IP-10 (IP-10; Table 20-4, formula (20-I)): 127.2

SMILES: CCCCCCCCCN(CCO)CCN(CCCCCCCCC)CCCCCCCCC [Compound 20-16, 2-((2-(Dinonylamino)ethyl)(nonyl)amino)ethan-1-ol]
- Total Flux Liver ([1]; Table 20-3, mice): 9.55E+04
- Total Flux Lung ([1]; Table 20-3, mice): 1.44E+04
- Total Flux Spleen ([1]; Table 20-3, mice, spleen): 6.57E+04
- total flux in the liver, rank within the named table (in words) ([1]; mice): lowest
- Total Flux 3 hours ([2]; Table 20-2): 7.88E+05
- Total Flux 6 hours ([2]; Table 20-2): 6.25E+05
- Total Flux 24 hours ([2]; Table 20-2): 2.16E+05
- total flux after 24 hours, rank within the named table (in words) [2]: lowest
- EE (%) [3, 8]: 97.2%
- PDI [4, 8]: 0.225
- Size (nm) [4, 8]: 73.5 nm
- pKa [5, 8]: 6.62
- IP-10 (IP-10; Table 20-4, formula (20-I)): 395.7

SMILES: CCCCCCCCCCCCN(CCCCCCCCCCCC)CCN1CCN(C(=O)CN(CCCCCCCCCCCC)CCN(CCCCCCCCCCCC)CCCCCCCCCCCC)CC1 [Compound 2, 2-((2-(Didodecylamino)ethyl)(dodecyl)amino)-1-(4-(2-(didodecylamino)ethyl)piperazin-1-yl)ethan-1-one]
- Total Flux Liver ([1]; Table 3, mice): 3.33E+08
- Total Flux Lung ([1]; Table 3, mice): 4.76E+05
- Total Flux Spleen ([1]; Table 3, mice, spleen): 1.14E+07
- Total Flux 3 hours ([2]; Table 2): 6.01E+09
- Total Flux 6 hours ([2]; Table 2): 3.23E+09
- Total Flux 24 hours ([2]; Table 2): 3.23E+09
- EE (%) [3, 6]: 96%
- Size (nm) [4, 7]: 94.7 nm
- PDI [4, 6]: 0.108
- pKa [5, 6]: 6.39
- IP-10 (IP-10; Table 4): 3365

SMILES: CCCCCCCCCCCCN(CCO)CCCCCCCCCCCC [Compound 17-11, 2-(Didodecylamino)ethan-1-ol]
- Total Flux Liver ([1]; Table 17-3, mice): 5.06E+05
- Total Flux Lung ([1]; Table 17-3, mice): 1.20E+04
- Total Flux Spleen ([1]; Table 17-3, mice, spleen): 3.37E+05
- Total Flux 3 hours ([2]; Table 17-2): 1.86E+06
- Total Flux 6 hours ([2]; Table 17-2): 2.82E+06
- Total Flux 24 hours ([2]; Table 17-2): 2.70E+05
- EE (%) ([3]; Table 17-1): 88.7%
- PDI ([4]; Table 17-1): 0.24
- Size (nm) ([4]; Table 17-1): 87.3 nm
- pKa ([5]; Table 17-1): 6.76

Continued, in another order:

- EE (%) ([3]; Table 17-1): 96.9%
- encapsulation efficiency, rank within the named table (in words) [3]: comparable to that for MC3
- PDI ([4]; Table 17-1): 0.20
- Size (nm) ([4]; Table 17-1): 86.4 nm
- pKa ([5]; Table 17-1): 6.16
- IP-10 (IP-10; Table 17-4): 135
SMILES: CCCCCCCC/C=C\CCCCCCCCN(CCO)CCCCCCCC/C=C\CCCCCCCC [Compound 17-8, 2-(Di((Z)-octadec-9-en-1-yl)amino)ethan-1-ol]
- Total Flux Liver ([1]; Table 17-3, mice): 2.27E+08
- Total Flux Lung ([1]; Table 17-3, mice): 6.11E+05
- Total Flux Spleen ([1]; Table 17-3, mice, spleen): 4.25E+06
- total flux in the liver, rank within the named table (in words) ([1]; mice): somewhat comparable to those including MC3
- total flux in the spleen, rank within the named table (in words) ([1]; mice, spleen): highest
- Total Flux 3 hours ([2]; Table 17-2): 1.02E+09
- Total Flux 6 hours ([2]; Table 17-2): 5.94E+08
- Total Flux 24 hours ([2]; Table 17-2): 3.79E+07
- total flux / Luc expression, rank within the named table (in words) ([2]; each time point): substantially higher flux than compositions including Compounds 17-2, 17-3, and 17-7

- IL-6 (IL-6; Table 4, in pg/mL (unit assumed)): 7
- IL-6 induction, rank within the named table (in words) (IL-6): lowest IL-6 expression
- EE (%) [3, 9]: 92.5%
- PDI [4, 9]: 0.044
- Size (nm) ([4]; Table 1, rows without footnote mark (lipid:DOPE:cholesterol:PEG-DMG 40:20:38.5:1.5, Luc mRNA; MC3 standard formulation)): 73.5 nm
- IP-10 (IP-10; Table 4): 341
SMILES: CCCCCCCCCCCCN(CCCCCCCCCCCC)CCN(CCCCCCCCCCCC)CCN1CCN(C(=O)CN(CCCCCCCCCCCC)CCCCCCCCCCCC)CC1 [Compound 3, 2-(Didodecylamino)-1-(4-(2-((2-(didodecylamino)ethyl)(dodecyl)amino)ethyl)piperazin-1-yl)ethan-1-one]
- Total Flux Liver ([1]; Table 3, mice): 1.36E+08
- Total Flux Lung ([1]; Table 3, mice): 8.47E+05
- Total Flux Spleen ([1]; Table 3, mice, spleen): 9.51E+05
- Total Flux 3 hours ([2]; Table 2): 3.75E+08
- Total Flux 6 hours ([2]; Table 2): 1.12E+09
